Earlier results, collected in patent US20150050250A1, “CELL THERAPY TECHNOLOGY TO DELIVER RADIO-PROTECTIVE PEPTIDES” (UNIVERSITY OF SOUTHERN CALIFORNIA, priority 2012, published 2015).

B1: Bowman Birk protease inhibitor (protein)
chain: DDESSKPCCDQCACTKSNPPQCRCSDMRLNSCHSACKSCICALSYPAQCFCVDITDFCYEPCKPSEDDKEN
modifications: Soybean

How the values were obtained:
fibroblasts = conditions: BBI peptide at 20 μM added directly to the tissue culture medium

Molecule	protection of fibroblasts from ionizing radiation (fibroblasts)	radioprotection of normal tissue in vivo (normal tissue)
CALSYPAQCFC (portion of Soybean Bowman Birk protease inhibitor) [BBI peptide]	protected fibroblasts from ionizing radiation	
B1		selective radioprotection to normal tissue in vivo
